Source: ChEMBL document CHEMBL4308841, “Synthesis, in vitro antiproliferative activity, and kinase inhibitory effects of pyrazole-containing diarylureas and diarylamides” (Eur J Med Chem, 2018)
pIC50: −log10 of the molar value.

Tests used:
[1] = tested on: SW-620; test: Growth inhibition of human SW620 cells assessed as cell growth at 0.1 uM incubated for 48 hrs by sulforhodamine B assay relative to control; type: functional; conditions: SW-620, 48 h, read-out: Activity
[2] = tested on: SNB-75; test: Growth inhibition of human SNB75 cells assessed as cell growth at 0.01 uM incubated for 48 hrs by sulforhodamine B assay relative to control; type: functional; conditions: SNB-75, 48 h, read-out: Activity
[3] = tested on: OVCAR-5; test: Growth inhibition of human OVCAR5 cells assessed as cell growth at 0.1 uM incubated for 48 hrs by sulforhodamine B assay relative to control; type: functional; conditions: OVCAR-5, 48 h, read-out: Activity
[4] = tested on: A549; test: Growth inhibition of human A549/ATCC cells assessed as cell growth at 0.01 uM incubated for 48 hrs by sulforhodamine B assay relative to control; type: functional; conditions: A549, 48 h, read-out: Activity
[5] = tested on: NCI/ADR-RES; test: Growth inhibition of human NCI/ADR-RES cells assessed as cell growth at 0.01 uM incubated for 48 hrs by sulforhodamine B assay relative to control; type: functional; conditions: read-out: Activity
[6] = tested on: K562; test: Growth inhibition of human K562 cells assessed as cell growth at 0.01 uM incubated for 48 hrs by sulforhodamine B assay relative to control; type: functional; conditions: K562, 48 h, read-out: Activity
[7] = tested on: NCI-H522; test: Growth inhibition of human NCI-H522 cells assessed as cell growth at 10 uM incubated for 48 hrs by sulforhodamine B assay relative to control; type: functional; conditions: NCI-H522, 48 h, read-out: Activity
[8] = tested on: UACC-257; test: Growth inhibition of human UACC257 cells assessed as cell growth at 0.1 uM incubated for 48 hrs by sulforhodamine B assay relative to control; type: functional; conditions: UACC-257, 48 h, read-out: Activity
[9] = tested on: SK-MEL-2; test: Growth inhibition of human SK-MEL-2 cells assessed as cell growth at 0.1 uM incubated for 48 hrs by sulforhodamine B assay relative to control; type: functional; conditions: SK-MEL-2, 48 h, read-out: Activity
[10] = tested on: SK-MEL-5; test: Growth inhibition of human SK-MEL-5 cells incubated for 48 hrs by sulforhodamine B assay; type: functional, cell-based; conditions: SK-MEL-5, 48 h
[11] = tested on: RPMI-8226; test: Growth inhibition of human RPMI8226 cells assessed as cell growth at 100 uM incubated for 48 hrs by sulforhodamine B assay relative to control; type: functional; conditions: RPMI-8226, 48 h, read-out: Activity
[12] = tested on: SF-295; test: Growth inhibition of human SF295 cells assessed as cell growth at 0.01 uM incubated for 48 hrs by sulforhodamine B assay relative to control; type: functional; conditions: SF-295, 48 h, read-out: Activity
[13] = tested on: LOX IMVI; test: Growth inhibition of human LOXIMVI cells incubated for 48 hrs by sulforhodamine B assay; type: functional
[14] = tested on: SNB-19; test: Growth inhibition of human SNB19 cells assessed as cell growth at 1 uM incubated for 48 hrs by sulforhodamine B assay relative to control; type: functional; conditions: SNB-19, 48 h, read-out: Activity
[15] = tested on: MDA-MB-435; test: Growth inhibition of human MDA-MB-435 cells assessed as cell growth at 1 uM incubated for 48 hrs by sulforhodamine B assay relative to control; type: functional; conditions: MDA-MB-435, 48 h, read-out: Activity
[16] = tested on: ACHN; test: Growth inhibition of human ACHN cells assessed as cell growth at 100 uM incubated for 48 hrs by sulforhodamine B assay relative to control; type: functional; conditions: read-out: Activity
[17] = tested on: NCI-H23; test: Growth inhibition of human NCI-H23 cells assessed as cell growth at 0.01 uM incubated for 48 hrs by sulforhodamine B assay relative to control; type: functional; conditions: NCI-H23, 48 h, read-out: Activity
[18] = tested on: IGROV-1; test: Growth inhibition of human IGROV1 cells assessed as cell growth at 0.1 uM incubated for 48 hrs by sulforhodamine B assay relative to control; type: functional; conditions: IGROV-1, 48 h, read-out: Activity
[19] = tested on: SNB-75; test: Growth inhibition of human SNB75 cells assessed as cell growth at 100 uM incubated for 48 hrs by sulforhodamine B assay relative to control; type: functional; conditions: SNB-75, 48 h, read-out: Activity
[20] = tested on: SN12C; test: Growth inhibition of human SN12C cells assessed as cell growth at 0.01 uM incubated for 48 hrs by sulforhodamine B assay relative to control; type: functional; conditions: read-out: Activity
[21] = tested on: ACHN; test: Growth inhibition of human ACHN cells incubated for 48 hrs by sulforhodamine B assay; type: functional, cell-based
[22] = tested on: NCI-H522; test: Growth inhibition of human NCI-H522 cells incubated for 48 hrs by sulforhodamine B assay; type: functional, cell-based; conditions: NCI-H522, 48 h
[23] = tested on: DU-145; test: Growth inhibition of human DU145 cells assessed as cell growth at 1 uM incubated for 48 hrs by sulforhodamine B assay relative to control; type: functional; conditions: DU-145, 48 h, read-out: Activity
[24] = tested on: SK-OV-3; test: Growth inhibition of human SKOV3 cells assessed as cell growth at 0.01 uM incubated for 48 hrs by sulforhodamine B assay relative to control; type: functional; conditions: SK-OV-3, 48 h, read-out: Activity
[25] = tested on: U-251; test: Growth inhibition of human U251 cells incubated for 48 hrs by sulforhodamine B assay; type: functional, cell-based; conditions: U-251, 48 h
[26] = tested on: RPMI-8226; test: Growth inhibition of human RPMI8226 cells incubated for 48 hrs by sulforhodamine B assay; type: functional, cell-based; conditions: RPMI-8226, 48 h
[27] = tested on: SR; test: Growth inhibition of human SR cells incubated for 48 hrs by sulforhodamine B assay; type: functional, cell-based
[28] = tested on: OVCAR-3; test: Growth inhibition of human OVCAR3 cells assessed as cell growth at 0.1 uM incubated for 48 hrs by sulforhodamine B assay relative to control; type: functional; conditions: OVCAR-3, 48 h, read-out: Activity
[29] = read-out: LC50 (the source's name)
[30] = read-out: pLC50 (the source's name) (converted)

O=C(Nc1cccc(-n2cc(-c3ccncc3)c(-c3cc(O)cc(Cl)c3)n2)c1)c1cc(C(F)(F)F)cc(C(F)(F)F)c1
growth at 0.1 µM [1]: 98% | growth at 0.01 µM [2]: 58% | growth at 0.1 µM [3]: 54% | growth at 0.01 µM [4]: 95% | growth at 0.01 µM [5]: 101% | growth at 0.01 µM [6]: 99% | growth at 10 µM [7]: 17.8% | growth at 0.1 µM [8]: 98% | growth at 0.1 µM [9]: 93% | GI50 ([10]; read-out: GI50): 2.51 µM | CC50 [10, 29]: > 100 µM | TGI ([10]; read-out: TGI): 86.7 µM | GI50 ([10]; read-out: pGI50 (converted)): 2.63 µM | CC50 [10, 30]: > 100 µM | TGI ([10]; read-out: pTGI (converted)): 8.91 µM | growth at 100 µM [11]: -4% | growth at 0.01 µM [12]: 92% | GI50 ([13]; read-out: GI50): 3.29 µM | CC50 [13, 29]: > 100 µM | TGI ([13]; read-out: TGI): 13.7 µM | GI50 ([13]; read-out: pGI50 (converted)): 3.31 µM | CC50 [13, 30]: > 100 µM | TGI ([13]; read-out: pTGI (converted)): 13.8 µM | growth at 1 µM [14]: 105% | growth at 1 µM [15]: 88% | growth at 100 µM [16]: 19% | growth at 0.01 µM [17]: 94% | growth at 0.1 µM [18]: 98% | growth at 100 µM [19]: 15% | growth at 0.01 µM [20]: 97% | GI50 ([21]; read-out: GI50): 4.96 µM | CC50 [21, 29]: > 100 µM | TGI ([21]; read-out: TGI): > 100 µM | GI50 ([21]; read-out: pGI50 (converted)): 5.01 µM | CC50 [21, 30]: > 100 µM | TGI ([21]; read-out: pTGI (converted)): > 100 µM | GI50 ([22]; read-out: GI50): 1.5 µM | CC50 [22, 29]: > 100 µM | TGI ([22]; read-out: TGI): 83.7 µM | GI50 ([22]; read-out: pGI50 (converted)): 1.58 µM | CC50 [22, 30]: > 100 µM | TGI ([22]; read-out: pTGI (converted)): 8.32 µM | growth at 1 µM [23]: 93% | growth at 0.01 µM [24]: 102% | pIC50 [25]: 5.49 | GI50 ([25]; read-out: GI50): 3.23 µM | CC50 [25, 29]: > 100 µM | TGI ([25]; read-out: TGI): 24.4 µM | GI50 ([25]; read-out: pGI50 (converted)): 3.24 µM | CC50 [25, 30]: > 100 µM | TGI ([25]; read-out: pTGI (converted)): 30.9 µM | pIC50 [26]: 5.60 | GI50 ([26]; read-out: GI50): 2.5 µM | CC50 [26, 29]: > 100 µM | TGI ([26]; read-out: TGI): 12.7 µM | GI50 ([26]; read-out: pGI50 (converted)): 2.51 µM | CC50 [26, 30]: > 100 µM | TGI ([26]; read-out: pTGI (converted)): 12.6 µM | GI50 ([27]; read-out: GI50): 1.51 µM | CC50 [27, 29]: > 100 µM | TGI ([27]; read-out: TGI): 50.1 µM | GI50 ([27]; read-out: pGI50 (converted)): 1.62 µM | CC50 [27, 30]: > 100 µM | TGI ([27]; read-out: pTGI (converted)): 5.01 µM | growth at 0.1 µM [28]: 102%

COc1cc(Cl)cc(-c2nn(-c3cccc(NC(=O)c4ccc(Cl)c(Cl)c4)c3)cc2-c2ccncc2)c1
growth at 10 µM [7]: 53.7%
